Assay results: patent US20260085283A1, “STEM CELL-DERIVED GASTRULOID MODEL, METHOD FOR CONSTRUCTING SAME, AND USE” (Innovation Center of Suzhou Nanjing Medical University, priority 2022, published 2026)

System: gastruloid model induced from human induced pluripotent stem cells DYR0100
Assay: Thalidomide dosing of the in vitro gastruloid induction model (early embryonic teratogenesis model test)
[1] = day 7, dosed group (5 μM and 10 μM) compared with the control group
[2] = day 7, with the increase of dosed concentration (5 μM, 10 μM), significant statistical difference vs blank control and dimethyl sulfoxide control
[3] = day 7 samples, dosed group (5 μM and 10 μM) compared with the control group

Experimental: Two gradients of 5 μM and 10 μM were selected, and a blank control group and a dimethyl sulfoxide group (with thalidomide solvent) were added for testing.
When human induced pluripotent stem cells DYR0100 grew to 80-90% confluence, TrypLE Select was used to digest the cells into single cells, and the cells were resuspended in PBS to obtain a cell suspension 1; cell suspension 1 containing 9.0×10^4 cells was taken, 2 mL of the G1ER culture medium containing Y-27632 was added to resuspend the cells, and then 5 μM, 10 μM of 1% % thalidomide, dimethyl sulfoxide solution and a blank control group were added respectively, a total of 4 groups, to obtain a cell suspension 2; the cell suspension 2 was inoculated into a well of an Agreewell 400™ culture dish coated with the anti-adhesion solution (Anti-adhesion rinsing Solution) in advance. After centrifugation at 800 rpm for 2 minutes using a horizontal centrifuge, the cell amount per microwell was 50-75 cells (each well of the Agreewell 400™ culture dish has 1200 microwells, that is, the cell amount in each microwell was 9.0×10^4/1200=75 cells).
On day 2 of the culture, half of the culture medium was replaced with the G1ER culture medium, and 5 μM and 10 μM of 1% % thalidomide, dimethyl sulfoxide solution and a blank control were added respectively. Half of the culture medium was replaced every day until day 3 of the culture.
When the first stage of induction was completed, samples were taken from the four groups, and recorded with white light, then 4% paraformaldehyde was used for fixation for 30 minutes, and relevant immunofluorescence staining was performed for statistical verification.
On day 3 of the culture, 1.75 mL of the first-stage GIER culture medium was discarded, and the second-stage G2EE culture medium was added slowly along the wall, 5 μM and 10 μM of 1% thalidomide, dimethyl sulfoxide solution and a blank control were added respectively, to prevent the formed gastruloids from floating up from the microwells and then fusing.
On day 4 of the culture, 1.75 mL of the second-stage G2EE culture medium was discarded, and the third-stage aG2EE culture medium was added slowly along the wall, and 5 μM and 10 μM of 1% % thalidomide, dimethyl sulfoxide solution and a blank control were added respectively, to prevent the formed gastruloids from floating up from the microwells and then fusing.
On day 5 of the culture, 1.75 mL of the third-stage aG2EE culture medium was discarded, and the fourth-stage bG2EE culture medium was added slowly along the wall, and 5 μM and 10 μM of 1% % thalidomide, dimethyl sulfoxide solution and a blank control were added respectively, to prevent the formed gastruloids from floating up from the microwells and then fusing. After 24 hours, the culture medium was continuously replaced by 1.75 mL (the bG2EE culture medium) and cultured until day 7.
When the four-stage induction was completed, samples were taken from the four groups, and recorded the white light, then 4% paraformaldehyde was used to fix for 30 minutes, and relevant cell nucleus staining was performed for statistical verification.

With `O=C1CCC(N2C(=O)c3ccccc3C2=O)C(=O)N1` (stereo not drawn) [Thalidomide] the “formation of amniotic cavity and yolk sac (DAPI staining)” value [1] was “could not be formed”, the “internal structure of the gastruloids (DAPI staining of cell nucleus)” value [1] was “relatively disordered” and the “cell amount of the single gastruloid” value [2] was “decreased”. The “volume of the single gastruloid” value [2] was “decreased”, the “internal cavity structure of the gastruloids (white light results)” value [3] was “absent” and the “volume of the gastruloids (white light results)” value [3] was “reduced volume”.
